Experimental findings from patent US20150352108A1, “AMINO-PYRIMIDINE COMPOUNDS AS INHIBITORS OF TBK1 AND/OR IKK EPSILON” (Alzheimer's Institute of America, priority 2009, published 2015) are described below.

Assay [1] concerns the target T1, IKKε (Homo sapiens, UniProt Q14164).
T1 construct: His-tag; made in house; host or cells: Sf9 insect cells
T1 sequence (Q14164 1-716): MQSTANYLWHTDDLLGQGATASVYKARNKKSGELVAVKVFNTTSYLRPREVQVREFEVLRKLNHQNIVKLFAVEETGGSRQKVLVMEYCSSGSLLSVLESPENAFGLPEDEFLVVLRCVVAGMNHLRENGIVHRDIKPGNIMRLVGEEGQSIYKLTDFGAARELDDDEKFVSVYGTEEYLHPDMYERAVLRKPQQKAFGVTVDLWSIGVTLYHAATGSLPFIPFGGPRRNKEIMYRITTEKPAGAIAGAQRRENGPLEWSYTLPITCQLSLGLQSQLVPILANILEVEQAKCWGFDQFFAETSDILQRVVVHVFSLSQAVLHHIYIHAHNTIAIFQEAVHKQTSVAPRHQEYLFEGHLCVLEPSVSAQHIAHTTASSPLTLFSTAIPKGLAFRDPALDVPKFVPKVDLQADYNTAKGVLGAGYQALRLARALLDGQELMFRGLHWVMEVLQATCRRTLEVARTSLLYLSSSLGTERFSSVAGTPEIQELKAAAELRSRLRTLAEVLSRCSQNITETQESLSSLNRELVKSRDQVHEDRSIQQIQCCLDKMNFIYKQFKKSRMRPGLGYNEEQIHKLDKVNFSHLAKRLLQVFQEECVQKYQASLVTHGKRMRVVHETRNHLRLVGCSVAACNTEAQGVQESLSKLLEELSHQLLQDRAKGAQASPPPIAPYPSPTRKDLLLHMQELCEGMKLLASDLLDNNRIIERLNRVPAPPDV
In words: In-vitro IKKε kinase assay ([γ33]ATP filter-plate). The format is biochemical. The procedure, abridged:
(§1)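 His-tagged IKKε and TBK1 from Sf9 cells were assayed with myelin basic protein or casein and [γ33]ATP at 2×Km ATP (32 μM for IKKε, 60 μM for TBK1). Enzyme was 0.1 or 0.015 μg/ml for IKKε and 0.1 or 0.02 μg/ml for TBK1 (normal/sensitized). Reactions ran 30-45 min, were filter-captured, scintillation-counted, and normalized to DMSO after background subtraction.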

Assay [2] concerns IKKε-mediated phosphorylation of IRF3. Description: In-situ phosphorylation of IRF3 (pIRF3 Ser396 ELISA) in HEK293T cells cotransfected with IRF3 and IKKε. The class given is cell-based. To be noted: Homo sapiens, HEK-293T. The procedure, abridged: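 Cells for the IRF7 Western blots carried IRF7 and TBK1 plasmids, were seeded at 150,000/well, exposed to compound overnight and probed for pSer477/Ser479 IRF7. The ELISA readout used IRF3 + IKKε-cotransfected HEK293T at 20,000/well with 20 h treatment, quantifying pSer396 IRF3 relative to DMSO, plus a parallel CellTiter-Glo viability check.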

Assay [3] has as its system secreted RANTES, prostate cancer DU145 cells. Description: ELISA to detect secreted RANTES, DU145 cells. The class given is cell-based. To be noted: Homo sapiens, DU-145; cell system (DU145 or Poly(I:C)-induced MALME-3) not specified; read-out: IC50 for inhibition of the secretion of RANTES. Here is the method: Prostate cancer DU145 cells were seeded at 20,000 cells/well in a 96-well tissue culture plate. The following day media was removed and replaced with complete media containing IKKε/TBK1 inhibitor (starting concentration 25 µM, 1:3 dilutions, final DMSO 0.05%). Cells were incubated for 20 hours and culture supernatant used to determine secreted RANTES levels using a commercially available ELISA kit (R & D Systems, Minneapolis, Minn.).
For orientation: In an ELISA, binding on a coated surface is turned into a signal by an enzyme label.

Assay [4] deals with T2, TBK1 (Homo sapiens, UniProt Q9UHD2).
T2 construct: His-tag; made in house; host or cells: Sf9 insect cells
T2 sequence (Q9UHD2 1-729): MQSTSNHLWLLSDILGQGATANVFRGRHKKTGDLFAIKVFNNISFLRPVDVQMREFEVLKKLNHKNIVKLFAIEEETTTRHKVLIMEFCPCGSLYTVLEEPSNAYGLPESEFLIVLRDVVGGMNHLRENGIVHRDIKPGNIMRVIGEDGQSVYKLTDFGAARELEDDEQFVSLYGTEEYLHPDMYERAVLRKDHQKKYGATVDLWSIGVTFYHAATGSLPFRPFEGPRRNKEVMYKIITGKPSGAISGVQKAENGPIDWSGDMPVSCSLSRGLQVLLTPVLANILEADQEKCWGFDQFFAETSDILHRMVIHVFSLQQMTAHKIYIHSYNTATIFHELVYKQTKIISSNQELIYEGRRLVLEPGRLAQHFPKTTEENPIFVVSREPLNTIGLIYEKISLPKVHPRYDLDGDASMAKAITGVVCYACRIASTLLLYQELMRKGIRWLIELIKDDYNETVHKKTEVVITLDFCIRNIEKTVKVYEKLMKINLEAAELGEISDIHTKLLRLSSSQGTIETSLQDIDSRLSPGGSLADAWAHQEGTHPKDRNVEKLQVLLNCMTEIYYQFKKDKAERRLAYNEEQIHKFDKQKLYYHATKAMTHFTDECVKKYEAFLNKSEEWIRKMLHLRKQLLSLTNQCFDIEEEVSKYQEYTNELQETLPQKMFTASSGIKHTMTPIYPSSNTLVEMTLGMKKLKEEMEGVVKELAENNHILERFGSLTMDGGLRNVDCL
In words: In-vitro TBK1 kinase assay ([γ33]ATP filter-plate). The format is biochemical. In outline: as §1

Setting [5] is: text bins, read-out: IC50 for inhibition of the kinase activity of IKKε.
[6] abbreviates: HEK293T cells, 20 hours, text bins, read-out: IC50 for inhibition of the in-situ IKKε-mediated phosphorylation of IRF3.
The mark [7] stands for this setting: text bins, read-out: IC50 for inhibition of the kinase activity of TBK1.
[8] abbreviates: HEK293T cells in culture, Table 3, read-out: pIRF3 ELISA IC50.

Like-named read-outs stand apart in the source and are kept apart here. Bounds are passed on as bounds.

In general, IC50 refers to the concentration that gives 50% inhibition. On to `COc1cc(-c2ccnc(Nc3ccc(N4CCN(CCO)CC4)cc3)n2)cc(C#N)c1OC1CCOCC1` [compound 446, 5-[2-({4-[4-(2-Hydroxyethyl)piperazin-1-yl]phenyl}amino)pyrimidin-4-yl]-3-methoxy-2-(tetrahydro-2H-pyran-4-yloxy)benzonitrile], for which the half-inhibitory concentration (IC50) in assay [1] (setting [5]) was under 5 nM; in assay [2] (setting [6]), under 100 nM; in assay [3], under 10 nM; in assay [4] (setting [7]), under 10 nM.
Consider `CC(=O)NCc1ccc(Nc2nccc(-c3ccc(OC4CCOCC4)c(C#N)c3)n2)cc1` [compound 492, N-[4-({4-[3-cyano-4-(tetrahydro-2H-pyran-4-yloxy)phenyl]pyrimidin-2-yl}amino)benzyl] acetamide], for which the IC50 in assay [1] (setting [5]) was under 5 nM; in assay [2] (setting [6]) it was under 100 nM; in assay [3], under 10 nM; in assay [4] (setting [7]), under 10 nM.
For `COc1cc(Nc2nccc(-c3ccc(OC4CCOCC4)c(C#N)c3)n2)ccc1S(=O)(=O)NCCCN1CCOCC1` [Example 176], the half-inhibitory concentration (IC50) in assay [1] (Table 3, read-out: IKKε IC50) is 0.9 nM; in assay [1] (setting [5]), under 5 nM; in assay [2] (setting [8]), 12.5 nM; in assay [2] (setting [6]), under 100 nM; in assay [4] (Table 3, read-out: TBK1 IC50), 0.3 nM; in assay [4] (setting [7]), under 10 nM.
Regarding `CN(C)S(=O)(=O)Cc1cccc(Nc2nccc(-c3ccc(OC4CCOCC4)c(C#N)c3)n2)c1` [compound 601, 1-[3-({4-[3-Cyano-4-(tetrahydro-2H-pyran-4-yloxy)phenyl]pyrimidin-2-yl}amino)phenyl]-N,N-dimethylmethane-sulfonamide], the IC50 in assay [1] (Table 3, read-out: IKKε IC50) was 2.4 nM; in assay [1] (setting [5]), under 5 nM; in assay [2] (setting [8]), 276 nM; in assay [2] (setting [6]) it was 250 to 500 nM; in assay [4] (Table 3, read-out: TBK1 IC50) it was 0.4 nM; in assay [4] (setting [7]) it was under 10 nM.
Take `COc1cc(Nc2nccc(-c3ccc(OC4CCOCC4)c(C#N)c3)n2)ccc1C(=O)NCCN1CCCC1` [compound 504, 4-({4-[3-cyano-4-(tetrahydro-2H-pyran-4-yloxy)phenyl]pyrimidin-2-yl}amino)-2-methoxy-N-[2-(pyrrolidin-1-yl)ethyl]benzamide]: the IC50 in assay [1] (setting [5]) is under 5 nM; in assay [2] (setting [6]) it was under 100 nM; in assay [4] (setting [7]), under 10 nM.
`COc1cc(Nc2nccc(-c3ccc(OC4CCOCC4)c(C#N)c3)n2)ccc1C(=O)N(C)CCN(C)C` [compound 505, 4-({4-[3-cyano-4-(tetrahydro-2H-pyran-4-yloxy)phenyl]pyrimidin-2-yl}amino)-N-[2-(dimethylamino)ethyl]-2-mrthoxy-N-methylbenzamide]: the IC50 was under 5 nM in assay [1] (setting [5]), under 100 nM in assay [2] (setting [6]), under 10 nM in assay [3] and under 10 nM in assay [4] (setting [7]).
Consider `N#Cc1cc(-c2ccnc(Nc3ccc(CS(=O)(=O)N4CCOCC4)cc3)n2)ccc1OC1CCOCC1` [compound 404, 5-[2-({4-[(Morpholin-4-ylsulfonyl)methyl]phenyl}amino)pyrimidin-4-yl]-2-(tetrahydro-2H-pyran-4-yloxy)benzonitrile], for which the values for the IC50 in assay [1] (setting [5]), in assay [2] (setting [6]) and in assay [4] (setting [7]) were under 5 nM, under 100 nM and under 10 nM, respectively.
On to `CN(C)CCNS(=O)(=O)c1ccc(Nc2nccc(-c3ccc(OC4CCOCC4)c(C#N)c3)n2)cc1` [compound 334, 4-({4-[3-cyano-4-(tetrahydro-2H-pyran-4-yloxy)phenyl]pyrimidin-2-yl}amino)-N-[2-(dimethylamino)ethyl] benzenesulfonamide], for which the IC50 in assay [1] (setting [5]) was under 5 nM; in assay [2] (setting [6]), 100 to 250 nM; in assay [4] (setting [7]) it was under 10 nM.
The corresponding values for `COCCNCc1ccc(Nc2nccc(-c3ccc(OC4CCOCC4)c(C#N)c3)n2)cc1` [compound 488, 5-{2-[(4-{[(2-methoxyethyl)amino]methyl}phenyl)amino]pyrimidin-4-yl}-2-(tetrahydro-2H-pyran-4-yloxy)benzonitrile] are under 5 nM, under 100 nM and under 10 nM.
Take `Cc1ccc(Nc2nccc(-c3ccc(OC4CCOCC4)c(C#N)c3)n2)cc1OCCN` [compound 559, 5-(2-{[3-(2-Aminoethoxy)-4-methylphenyl]amino}pyrimidin-4-yl)-2-(tetrahydro-2H-pyran-4-yloxy)benzonitrile]: the 50% inhibitory concentration (IC50) in assay [1] (setting [5]) is under 5 nM; in assay [2] (setting [6]) it was under 100 nM; in assay [4] (setting [7]), under 10 nM.
The corresponding values for `COc1ccc(Nc2nccc(-c3ccc(OC4CCOCC4)c(C#N)c3)n2)cc1OCCOCCN` [Example 32, 5-[2-({3-[2-(2-aminoethoxy)ethoxy]-4-methoxyphenyl}amino)pyrimidin-4-yl]-2-(tetrahydro-2H-pyran-4-yloxy)benzonitrile] are under 5 nM, 100 to 250 nM and under 10 nM.
For the compound `COc1cc(Nc2nccc(-c3ccc(OC4CCOCC4)c(C#N)c3)n2)ccc1S(=O)(=O)N1CCN(C)CC1` [Example 114, 5-[2-({3-methoxy-4-[(4-methylpiperazin-1-yl)sulfonyl]phenyl}amino)pyrimidin-4-yl]-2-(tetrahydro-2H-pyran-4-yloxy)benzonitrile], the IC50 in assay [1] (setting [5]) was under 5 nM; in assay [2] (setting [6]) it was under 100 nM; in assay [4] (setting [7]) it was under 10 nM.
The corresponding values for `COc1cc(Nc2nccc(-c3ccc(OC4CCOCC4)c(C#N)c3)n2)ccc1C(=O)N1CC(CN(C)C)C1` [compound 507, 5-(2-{[4-({3-[(dimethylamino)methyl]azetidin-1-yl}carbonyl)-3-methoxyphenyl]amino}pyrimidin-4-yl)-2-(tetrahydro-2H-pyran-4-yloxy)benzonitrile] are under 5 nM, under 100 nM and under 10 nM.
Consider `COc1cc(Nc2nccc(-c3ccc(OC4CCOCC4)c(C#N)c3)n2)ccc1OCCCN1CCN(C)CC1` [Example 256, 5-[2-({3-methoxy-4-[3-(4-methylpiperazin-1-yl)propoxy]phenyl}amino)pyrimidin-4-yl]-2-(tetrahydro-2H-pyran-4-yloxy)benzonitrile], for which the values for the IC50 in assay [1] (setting [5]), in assay [2] (setting [6]) and in assay [4] (setting [7]) were under 5 nM, 100 to 250 nM and under 10 nM, respectively.
